molecular target: T1, Human FAAH (Homo sapiens, UniProt O00519); assay: FAAH assay (glutamate dehydrogenase-coupled, oleamide substrate, absorbance at 340 nm); assay type: biochemical; settings: irreversible inhibition, 1-4 nM FAAH, pH 7.4, 30° C., 90 min
T1 construct: made in house
T1 sequence (O00519 1-579): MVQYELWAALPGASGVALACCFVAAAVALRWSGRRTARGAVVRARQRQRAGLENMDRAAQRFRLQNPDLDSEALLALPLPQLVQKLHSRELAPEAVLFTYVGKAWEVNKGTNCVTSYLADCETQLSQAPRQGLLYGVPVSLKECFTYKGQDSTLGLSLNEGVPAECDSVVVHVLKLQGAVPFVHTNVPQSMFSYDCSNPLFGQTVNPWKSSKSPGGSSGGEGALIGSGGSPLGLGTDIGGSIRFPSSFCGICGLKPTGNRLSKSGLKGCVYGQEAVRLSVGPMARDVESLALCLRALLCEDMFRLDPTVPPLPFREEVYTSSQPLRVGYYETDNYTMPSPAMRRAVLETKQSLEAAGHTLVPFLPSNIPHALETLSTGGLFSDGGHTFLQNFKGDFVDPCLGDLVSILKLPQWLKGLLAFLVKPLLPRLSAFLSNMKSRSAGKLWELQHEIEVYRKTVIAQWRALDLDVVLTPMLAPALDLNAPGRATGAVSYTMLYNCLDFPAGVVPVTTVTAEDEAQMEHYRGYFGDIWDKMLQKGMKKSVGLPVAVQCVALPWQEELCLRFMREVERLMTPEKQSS
Protocol: The FAAH assay was carried out in 384-well clear polystyrene plates in a total volume of 50 μl per well. All percents are by volume. To each well, was placed the reaction mixture (40 μl) containing 1-4 nM FAAH, 50 mM NaPi, pH 7.4, 3 mM α-ketoglutarate, 0.15 mM NADH, 7.5 U/ml glutamate dehydrogenase, 2 mM ADP, 1 mM EDTA, and 0.1% Triton X-100 (The concentration shown for each component is the final concentration in the assay). […] This was immediately followed by the addition of 5 μl oleamide (500 μM) dissolved in 75% EtOH/25% DMSO and the reaction mixture was mixed for 1.5 min. The final concentrations of DMSO and EtOH in the assay were each 7.5%.
Initial velocity data (V) were obtained from the slopes of the initial progressive curves. They were plotted as a function of substrate concentration and fit to the Michaelis-Menten equation (1) using Prism (GraphPad Software, Inc., San Diego, Calif.) software to obtain Km and Vmax values.
To obtain potencies of irreversible inhibitors, progressive curves consistent with first order inhibition kinetics (two-step irreversible inhibition mechanism) were fit to equation (2) by nonlinear least squares regressions to determine kobs values at each inhibitor concentration, where [P]t is the absorbance at time t, V0 is a constant related to the steady state rate of the uninhibited reaction, and kobs is the first order rate constant for enzyme inactivation. The inhibitor dissociation constant (Ki) and the first order rate
[formula] constant of enzyme inactivation at infinite inhibitor concentration (kinact) were then obtained by fitting the kobs vs. [I] curves to equation (3).

Molecule | hFAAH kinact/Ki [M⁻¹ s⁻¹]
O=C(Nc1ccccn1)N1CCC(=Cc2cccc(Oc3ccc(C(F)(F)F)cn3)c2)CC1 [Example 9] | 3660
4-(3-ethoxy-5-{[5-(trifluoromethyl)pyridin-2-yl]oxy}benzylidene)-N-pyridin-3-ylpiperidine-1-carboxamide trifluoroacetate [Example 74] | 9870
O=C(Nc1cccnc1)N1CCC(=Cc2cccc(Oc3ccc(C(F)(F)F)cc3)c2)CC1 [Example 53] | 4520

same assay, conditions: irreversible inhibition, 1-4 nM FAAH, pH 7.4, 30° C., 90 min, read-out: hFAAH kinact/Ki

kinact/KI [M⁻¹ s⁻¹] | Molecule
105 | COc1ccc(-c2cnc(Oc3cccc(C=C4CCN(C(=O)Nc5cccnn5)CC4)c3)nc2)cc1 [Example 104, 4-(3-{[5-(4-methoxyphenyl)pyrimidin-2-yl]oxy}benzylidene)-N-pyridazin-3-ylpiperidine-1-carboxamide]
260 | O=C(Nc1cccnc1)N1CCC(=Cc2ccc(Cl)c(Oc3ccc(C(F)(F)F)cn3)c2)CC1 [Example 59, 4-(4-chloro-3-(5-(trifluoromethyl)pyridin-2-yloxy)benzylidene)-N-(pyridin-3-yl)piperidine 1-carboxamide]
5670 | O=C(Nc1cccnn1)N1CCC(=Cc2cccc(Oc3ccc(OCC(F)(F)F)cn3)c2)CC1 [Example 50, 4-(3-(5-(2,2,2-trifluoroethoxy)pyridin-2-yloxy)benzylidene)-N-(pyridazin-3-yl)piperidine-1-carboxamide]
5070 | O=C(Nc1cccnc1)N1CCC(=Cc2cccc(Oc3ncc(Br)cn3)c2)CC1 [Example 36, 4-(3-(5-bromopyrimidin-2-yloxy)benzylidene)-N-(pyridin-3-yl)piperidine-1-carboxamide]
837 | COc1ccc(NC(=O)N2CCC(=Cc3cccc(Oc4ccc(C(F)(F)F)cn4)c3)CC2)c(C)n1 [Example 140, N-(6-methoxy-2-methylpyridin-3-yl)-4-(3-{[5-(trifluoromethyl)pyridin-2-yl]oxy}benzylidene)piperidine-1-carboxamide]
3700 | Cc1ccc(Oc2cccc(C=C3CCN(C(=O)Nc4onc(C)c4C)CC3)c2)nc1 [Example 46, 4-(3-(5-methylpyridin-2-yloxy)benzylidene)-N-(3,4-dimethylisoxazol-5-yl)piperidine-1-carboxamide]
246 | O=C(Nc1ccc(O)nc1)N1CCC(=Cc2cccc(Oc3ccc(C(F)(F)F)cn3)c2)CC1 [Example 142, N-(6-hydroxypyridin-3-yl)-4-(3-{[5-(trifluoromethyl)pyridin-2-yl]oxy}benzylidene)piperidine-1-carboxamide]
10100 | COc1ccc(NC(=O)N2CCC(=Cc3cccc(Oc4ccc(C(F)(F)F)cn4)c3)CC2)cn1 [Example 8, N-(6-methoxypyridin-3-yl)-4-(3-{[5-(trifluoromethyl)pyridin-2-yl]oxy}benzylidene)piperidine-1-carboxamide]
50900 | O=C(Nc1cccnn1)N1CCC(=Cc2cccc(Oc3ccc(Br)cn3)c2)CC1 [Example 34, 4-(3-(5-bromopyridin-2-yloxy)benzylidene)-N-(pyridazin-3-yl)piperidine-1-carboxamide]
909 | O=C(Nc1cccnn1)N1CCC(=Cc2cccc(Oc3cnc4ccccc4n3)c2)CC1 [Example 122, N-pyridazin-3-yl-4-[3-(quinoxalin-2-yloxy)benzylidene]piperidine-1-carboxamide]
405 | O=C(Nc1ccc(C(F)(F)F)nc1)N1CCC(=Cc2cccc(Oc3ccc(C(F)(F)F)cn3)c2)CC1 [Example 126, N-[6-(trifluoromethyl)pyridin-3-yl]-4-(3-{[5-(trifluoromethyl)pyridin-2-yl]oxy}benzylidene)piperidine-1-carboxamide]
191 | Cc1nccnc1Oc1cccc(C=C2CCN(C(=O)Nc3cccnn3)CC2)c1 [Example 118, 4-{3-[(3-methylpyrazin-2-yl)oxy]benzylidene}-N-pyridazin-3-ylpiperidine-1-carboxamide]
6450 | C#CCCCOc1ccc(Oc2cccc(C=C3CCN(C(=O)Nc4cccnc4)CC3)c2)nc1 [Example 89, 4-(3-(5-(pent-4-ynyloxy)pyridin-2-yloxy)benzylidene)-N-(pyridin-3-yl)piperidine-1-carboxamide]
1070 | Cn1cc(NC(=O)N2CCC(=Cc3cccc(Oc4ccc(C(F)(F)F)cn4)c3)CC2)cn1 [Example 137, N-(1-methyl-1H-pyrazol-4-yl)-4-(3-{[5-(trifluoromethyl)pyridin-2-yl]oxy}benzylidene)piperidine-1-carboxamide]
16800 | O=C(Nc1cccnn1)N1CCC(=Cc2cccc(Oc3ccc(C(F)(F)F)nc3)c2)CC1 [Example 57, 4-(3-(6-(trifluoromethyl)pyridin-3-yloxy)benzylidene)-N-(pyridazin-3-yl)piperidine-1-carboxamide]
2150 | Cc1cccc(C(=O)NC(=O)N2CCC(=Cc3cccc(Oc4ccc(C(F)(F)F)cn4)c3)CC2)n1 [Example 16, 6-methyl-N-{[4-(3-{[5-(trifluoromethyl)pyridin-2-yl]oxy}benzylidene)piperidin-1-yl]carbonyl}pyridine-2-carboxamide]
861 | Cc1cnc(Oc2cccc(C=C3CCN(C(=O)Nc4cccnn4)CC3)c2)nc1C(C)C [Example 112, 4-{3-[(4-isopropyl-5-methylpyrimidin-2-yl)oxy]benzylidene}-N-pyridazin-3-ylpiperidine-1-carboxamide]
1840 | O=C(Nc1cccnn1)N1CCC(=Cc2cccc(Oc3ccc(N4CCC4)cn3)c2)CC1 [Example 87, 4-(3-(5-(azetidin-1-yl)pyridin-2-yloxy)benzylidene)-N-(pyridazin-3-yl)piperidine-1-carboxamide]
6190 | O=C(Nc1ccc(Br)nc1)N1CCC(=Cc2cccc(Oc3ccc(C(F)(F)F)cn3)c2)CC1 [Example 28, 4-(3-(5-(trifluoromethyl)pyridin-2-yloxy)benzylidene)-N-(6-bromopyridin-3-yl)piperidine-1-carboxamide]
554 | Cc1cccc(Oc2cccc(C=C3CCN(C(=O)Nc4cccnc4)CC3)c2)n1 [Example 40, 4-(3-(6-methylpyridin-2-yloxy)benzylidene)-N-(pyridin-3-yl)piperidine-1-carboxamide]
209 | COc1cccc2cnc(Oc3cccc(C=C4CCN(C(=O)Nc5cccnn5)CC4)c3)nc12 [Example 101, 4-{3-[(8-methoxyquinazolin-2-yl)oxy]benzylidene}-N-pyridazin-3-ylpiperidine-1-carboxamide]
4240 | CCCc1cnc(Oc2cccc(C=C3CCN(C(=O)Nc4cccnn4)CC3)c2)nc1 [Example 111, 4-{3-[(5-propylpyrimidin-2-yl)oxy]benzylidene}-N-pyridazin-3-ylpiperidine-1-carboxamide]
394 | COc1ccc(Oc2cccc(C=C3CCN(C(=O)Nc4cccnn4)CC3)c2)c(C)n1 [Example 97, 4-{3-[(6-methoxy-2-methylpyridin-3-yl)oxy]benzylidene}-N-pyridazin-3-ylpiperidine-1-carboxamide]
162 | O=C(Nc1cccnn1)N1CCC(=Cc2cccc(Oc3ncccn3)c2)CC1 [Example 103, N-pyridazin-3-yl-4-[3-(pyrimidin-2-yloxy)benzylidene]piperidine-1-carboxamide]

Source: US8044052B2, “Biaryl ether urea compounds” (Pfizer Inc., priority 2006, dated 2011)
